The results in this text go back to patent US20250152564A1, “PROPYLENE KETONE-CONTAINING BIOINHIBITOR, PREPARATION METHOD THEREFOR, AND USE THEREOF” (SHANGHAI HANSOH BIOMEDICAL CO., LTD., priority 2022, published 2025).

Each structure is given as a SMILES string.

In one data set the target is FGFR1 (Homo sapiens (Human), UniProt P11362). The data set is described as follows: TR-FRET kinase inhibition assay, FGFR1. The note with it: ATP Km concentration (30 μM). The format is biochemical. In a few lines: (§1)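 Kinase-domain fragments in 50 mM HEPES pH 7.5 with 10 mM MgCl2, ATP at Km plus peptide substrate; 60 min reaction at room temperature, then EDTA/Eu-anti-phosphotyrosine (PT66) detection for 60 min (30 min for V564F). 11-point 3-fold dilutions from 1000 nM; IC50 from four-parameter fit of 665/620 nm ratio inhibition.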
Sequence of FGFR1 (P11362 478-767): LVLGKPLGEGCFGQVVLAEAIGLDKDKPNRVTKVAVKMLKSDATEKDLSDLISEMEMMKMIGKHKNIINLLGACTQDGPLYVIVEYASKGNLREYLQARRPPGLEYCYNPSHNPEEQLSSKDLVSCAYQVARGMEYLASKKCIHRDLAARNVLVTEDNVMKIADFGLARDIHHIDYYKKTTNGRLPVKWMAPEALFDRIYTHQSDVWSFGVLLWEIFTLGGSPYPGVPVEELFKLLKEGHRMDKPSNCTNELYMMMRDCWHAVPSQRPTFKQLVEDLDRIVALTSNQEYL
(TR-FRET usually uses a lanthanide donor and a delayed reading to cut background.)

The target in a further data set is FGFR2 (Homo sapiens (Human), UniProt P21802). Description: TR-FRET kinase inhibition assay, FGFR2. The format is biochemical. The note with it: ATP Km concentration (30 μM). In a few lines: as §1
Sequence of FGFR2 (P21802 481-770): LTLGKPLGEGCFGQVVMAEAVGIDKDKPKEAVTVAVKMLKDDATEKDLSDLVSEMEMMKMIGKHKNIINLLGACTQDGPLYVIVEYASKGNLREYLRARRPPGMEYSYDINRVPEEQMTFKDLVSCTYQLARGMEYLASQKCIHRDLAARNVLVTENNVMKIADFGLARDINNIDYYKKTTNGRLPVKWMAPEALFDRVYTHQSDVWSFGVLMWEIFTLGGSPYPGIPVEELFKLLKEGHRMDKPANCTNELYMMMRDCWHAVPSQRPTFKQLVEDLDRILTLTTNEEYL
The next data set has as its target FGFR2 V564F (Homo sapiens (Human), UniProt P21802, V564F). The data set is described as follows: TR-FRET kinase inhibition assay, FGFR2 V564F. The format is biochemical. The settings on record: ATP Km concentration (20 μM). In a few lines:
as §1

Another data set deals with NCI-H716 cells. Description: CellTiter-Glo cell proliferation inhibition, NCI-H716. The settings on record: Homo sapiens, 72 h, read-out: NCI-H716 cell proliferation inhibition rate IC50. The format is cell-based. How it is done: To evaluate inhibitory effects of the compounds on the proliferation of NCI-H716, SNU-16 and BaF3-FGFR2-BICC1 V564F cells by cell proliferation inhibition experiments.
CellTiter-Glo method was used to detect inhibitory effects of the compounds on the proliferation of NCI-H716, SNU-16 and BaF3 FGFR2-BICC1 V564F cells. The highest detection concentration of the compounds was 1000 nM, which was diluted in 3 folds, with a total of 9 concentrations (1000 nM to 0.15 nM). After the cells were plated at an appropriate density, compounds were added the next day and incubated for 72 h before detection using the […] detection kit.
1) Inhibition rate (%): Inhibition rate %=[(mean value in positive control well−value in sample well)/(mean value in positive control well−mean value in negative control well)]×100, wherein the positive control well was a reaction well without a compound […], and the negative control well was a reaction wells without an enzyme.
(§2) 2) Curve fitting: Log(inhibitor) vs. response—Variable slope (four parameters) in GraphPad Prism 6 was used for fitting equation analysis of the compound concentration and the corresponding inhibition rate, and the curve was fitted to obtain the IC50 values of the compounds.

For data set [1], the system named is BaF3 FGFR2-BICC1 V564F cells. The data set is described as follows: CellTiter-Glo cell proliferation inhibition, BaF3 FGFR2-BICC1 V564F. The format is cell-based. The note with it: Mus musculus, 72 h, read-out: BaF3 FGFR2-BICC1 V564F inhibitory activity IC50. In a few lines: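 Cells plated, compound added next day as 9-point 3-fold series from 1000 nM to 0.15 nM, incubated 72 h. Viability by CellTiter-Glo luminescence; IC50 from four-parameter variable-slope fit of percent inhibition.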
Background: ATP-based viability assays read luminescence as a measure of living cells.

Data set [2] can be described thus: Pharmacokinetic experiment in SD rats after oral administration. The note with it: 5 mg/kg, plasma; for AUC(0-t) / AUC(0-inf) / half-life / MRT / Cmax: male, Sprague-Dawley (SD), rat, po; for AUC(0-t): read-out: Area under the curve AUC0-t; for AUC(0-inf): read-out: Area under the curve AUC0-∞; for half-life: read-out: Half-life t1/2 (converted); for MRT: read-out: Mean residence time MRT; for Cmax: read-out: Plasma concentration Cmax; for Time to peak tmax: p.o. The format is in vivo. As for the experimental part: To study the pharmacokinetic behavior of the compounds of the present invention in the rat body (plasma) after oral administration at a dose of 5 mg/kg using SD rats as test animals.
3 SD rats/group, male, from Shanghai Jiesijie Experimental Animal Co., Ltd., animal production license number (SCXK (Shanghai) 2013-0006 N0.311620400001794).
PO, 10% solutol HS15-0.5% CMC-Na was dissolved by ultrasound and prepared into a clear solution or homogeneous suspension.
3 SD rats/group, male; p.o. respectively at a dose of 5 mg/kg and an administration volume of 10 mL/kg after the […] were fasted overnight.
After oral administration to rats, at 0.25, 0.5, 1, 2, 4, 6, 8 and 24 hours, 0.2 mL of blood was collected from the jugular vein, placed in an EDTA-K2 test tube, centrifuged at 6000 rpm for 6 min at 4° C. to separate the plasma, which was stored at −80° C.
1) 100 μL of acetonitrile was added to 20 μL of plasma sample for pelleting, and it was mixed and centrifuged at 3500×g for 5-20 min.
2) The treated supernatant solution was taken and subjected to LC/MS/MS to analyze the concentrations of the test compounds. LC/MS/MS analysis instrument: AB Sciex API 4000 Qtrap.
• Liquid phase conditions: Shimadzu LC-20AD pump • Chromatographic column: Waters Xbridge C18 5 μm, 4.6×50 mm mobile phase: liquid A was 0.1% aqueous formic acid solution, and liquid B was methanol • Flow rate: 1.0 mL/min • Elution time: 0-4.0 min, the eluent was as follows: […]

A further data set deals with FGFR3 (Homo sapiens (Human), UniProt P22607). The data set is described as follows: TR-FRET kinase inhibition assay, FGFR3. The format is biochemical. The note with it: ATP Km concentration (30 μM). How it is done:
To measure the IC50 values of the compounds against FGFR1, FGFR2, FGFR3, FGFR4, and FGFR2 V564F at ATP Km concentrations by TR-FRET method.
TR-FRET (time-resolved fluorescence resonance energy transfer) method was used to detect the inhibitory activity of the compounds on FGFR1, FGFR2, FGFR3, FGFR4, and FGFR2 V564F kinase region fragments. The highest detection concentration of the compounds in 5 kinase experiments was 1000 nM, which was diluted in 3 folds, with a total of 11 concentrations (1000 nM to 0.017 nM). A kinase buffer (50 mM HEPES pH 7.5, 1 mM EGTA, 10 mM MgCl2, 2 mM DTT, and 0.01% Tween-20) was used to prepare 4× enzyme solution, 4× compound solutions diluted in gradient, and a 2×ATP/Peptide substrate solution. To a 384-well plate, 2.5 μL of enzyme solution and 2.5 μL of diluted […] compound solution were added, and 5 μL of 2×ATP/Peptide substrate solution was then added. After reacting at room temperature for 60 minutes for FGFR1, FGFR2, FGFR3, and FGFR2 V564F kinases, and 120 minutes for FGFR4 kinase, 10 μL of a 2× termination and detection mixed liquid prepared with 1×LANCE detection buffer with an EDTA concentration of 20 mM and a Europium-anti-phosphotyrosine (PT66) concentration of 2 nM was added to each well of the plate. After reacting at room temperature for 60 minutes for FGFR1, FGFR2, FGFR3, and FGFR4, and 30 minutes for FGFR2 V564F, the fluorescence signal value in each well of the plate was measured by a microplate reader.
1) Inhibition rate (%): Calculation was performed on the raw data (665 nm/620 nm reading ratio) according to the following formula to obtain the inhibition rate. Inhibition rate %=[(mean value in positive control well−value in sample well)/(mean value in positive control well−mean value in negative control well)]×100, wherein the positive control well was a reaction well without a compound […], and the negative control well was a reaction wells without an enzyme.
as §2

Sequence of FGFR2 V564F (P21802 481-770 V564F): as the sequence (P21802 481-770) above, with V84F counted along it
Sequence of FGFR3 (P22607 472-761): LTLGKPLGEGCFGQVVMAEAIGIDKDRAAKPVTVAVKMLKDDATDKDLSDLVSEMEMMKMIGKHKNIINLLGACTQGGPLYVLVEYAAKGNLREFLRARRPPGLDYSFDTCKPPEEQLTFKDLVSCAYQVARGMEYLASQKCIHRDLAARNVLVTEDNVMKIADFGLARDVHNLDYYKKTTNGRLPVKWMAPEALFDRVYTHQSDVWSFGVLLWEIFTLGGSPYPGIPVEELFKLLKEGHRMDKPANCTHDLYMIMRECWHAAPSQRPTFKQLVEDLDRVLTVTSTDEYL

Broadly, the MRT is a mean duration of stay, worked out from the concentration-time curve. The compound `C=CC(=O)N1CC[C@H](n2nc(C#Cc3ccc4c(c3)ncn4C3CC3)c3c(N)ncc(C(=O)C4CC4)c32)C1` [Example 38, (S)-1-(3-(4-amino-7-(cyclopropanecarbonyl)-3-((1-cyclopropyl-1H-benzo[d]imidazol-5-yl)ethynyl)-1H-pyrazolo[4,3-c]pyridin-1-yl)pyrrolidin-1-yl)prop-2-en-1-one] showed an IC50 against FGFR1 of 2.8 nM. The IC50 on FGFR2 is 1.6 nM. Also, the IC50 at FGFR2 V564F turned out to be 1 nM. Besides, in the data set with NCI-H716 cells, the IC50 worked out at 0.91 nM. Also, in data set [1], the IC50 was determined as 1.9 nM. For the same compound, in data set [2], the AUC(0-t) turned out to be 2230 ng·h/mL, the AUC(0-inf) was 2270 ng·h/mL, the half-life was 66 min and the MRT turned out to be 2.99 h. For the same compound, in data set [2], the Cmax stood at 604 ng/mL and the Time to peak tmax worked out at 2 h.

As for `C=CC(=O)N1CC[C@H](n2nc(C#Cc3ccc4ccnn4c3)c3c(N)ncc(C(C)=O)c32)C1` [Example 71, (S)-1-(3-(7-acetyl-4-amino-3-(pyrazolo[1,5-a]pyridine-6-ethynylene)-1H-pyrazolo[4,3-c]pyridin-1-yl)pyrrolidine-1-methyl)prop-2-en-1-one], the IC50 against FGFR1 was found to be 7.2 nM; against FGFR2, 2 nM; on FGFR3, 2.7 nM; against FGFR2 V564F it was 2.8 nM; in the data set with NCI-H716 cells, 1.5 nM; in data set [1], 2.2 nM.

`C=CC(=O)N1CC[C@H](n2nc(C#Cc3ccc4cn(C5CC5)nc4c3)c3c(N)ncc(C(C)=O)c32)C1` [Example 87, (S)-1-(3-(7-acetyl-4-amino-3-((2-cyclopropyl-2H-indazol-6-yl)ethynyl)-1H-pyrazolo[4,3-c]pyridin-1-yl)pyrrolidine-1-methyl)prop-2-en-1-one] displayed an IC50 against FGFR1 of 1.6 nM. The compound further had an IC50 at FGFR2 of 0.5 nM. Besides, at FGFR2 V564F, the IC50 came out at 0.6 nM. Further, the IC50 in the data set with NCI-H716 cells came out at 1.31 nM. For the same compound, in data set [1], the IC50 was 0.3 nM. Moreover, in data set [2], the AUC(0-t) stood at 2240 ng·h/mL, the AUC(0-inf) stood at 2240 ng·h/mL, the half-life is 30 min and the mean residence time (MRT) was 2.38 h. In data set [2], the Cmax was determined as 534 ng/mL and the Time to peak tmax turned out to be 2 h.

For the compound `C=CC(=O)N1CC[C@H](n2nc(C#Cc3ccc4c(c3)ncn4C)c3c(N)ncc(C(=O)CC)c32)C1` [Example 64, (S)-1-(3-(4-amino-3-((1-methyl-1H-benzo[d]imidazol-5-yl)ethynyl)-7-propionyl-1H-pyrazolo[4,3-c]pyridin-1-yl)pyrrolidin-1-yl)prop-2-en-1-one], the IC50 against FGFR1 amounted to 6.3 nM. On FGFR2, this compound returned an IC50 of 1.4 nM. The compound further registered an IC50 against FGFR2 V564F of 0.6 nM. Moreover, the IC50 in the data set on NCI-H716 cells was determined as 1.8 nM. Besides, the IC50 in data set [1] was found to be 1.9 nM. Moreover, in data set [2], the AUC(0-t) turned out to be 3400 ng·h/mL, the AUC(0-inf) was determined as 3430 ng·h/mL, the half-life is 54 min and the MRT is 2.58 h. For the same compound, in data set [2], the Cmax stood at 866 ng/mL and the Time to peak tmax turned out to be 2 h.

`C=CC(=O)N1CC[C@H](n2nc(C#Cc3ccc4oc(C5CC5)nc4c3)c3c(N)ncc(C(C)=O)c32)C1` [Example 70, (S)-1-(3-(7-acetyl-4-amino-3-((2-cyclopropylbenzo[d]oxazol-5-yl)alkynyl)-1H-pyrazolo[4,3-c]pyridin-1-yl)pyrrolidine-1-methyl)prop-2-en-1-one] returned an IC50 against FGFR1 of 2.4 nM. For the same compound, the IC50 at FGFR2 worked out at 0.6 nM. Also, the IC50 against FGFR2 V564F is 1.3 nM. Moreover, the IC50 in the data set on NCI-H716 cells is 1.6 nM. Moreover, the IC50 in data set [1] is 2.6 nM. Moreover, in data set [2], the AUC(0-t) was found to be 1510 ng·h/mL, the AUC(0-inf) was 1860 ng·h/mL, the half-life was 150 min and the mean residence time MRT amounted to 5.5 h. Besides, in data set [2], the Cmax amounted to 287 ng/mL and the Time to peak tmax was found to be 4 h.

For the compound `C=CC(=O)N1CC[C@H](n2nc(C#Cc3ccc4cn(CC)nc4c3)c3c(N)ncc(C(C)=O)c32)C1` [Example 85, (S)-1-(3-(7-acetyl-4-amino-3-((2-ethyl-2H-indazol-6-yl)alkynyl)-1H-pyrazolo[4,3-c]pyridin-1-yl)pyrrolidine-1-methyl)prop-2-en-1-one], the IC50 against FGFR1 came out at 2.1 nM. Further, the IC50 on FGFR2 came to 0.4 nM. At FGFR2 V564F, the IC50 is 0.5 nM. Besides, the IC50 in the data set with NCI-H716 cells is 0.96 nM. Also, the IC50 in data set [1] was found to be 0.4 nM. In data set [2], the AUC(0-t) amounted to 1490 ng·h/mL, the AUC(0-inf) was 1490 ng·h/mL, the half-life was 30 min and the MRT is 2.39 h. For the same compound, in data set [2], the Cmax amounted to 394 ng/mL and the Time to peak tmax was found to be 0.5 h.

Turning to `C=CC(=O)N1CC[C@H](n2nc(C#Cc3ccc4c(c3)ncn4C3CC3)c3c(N)ncc(C(C)=O)c32)C1` [Example 37, (S)-1-(3-(7-acetyl-4-amino-3-((1-cyclopropyl-1H-benzo[d]imidazol-5-yl)ethynyl)-1H-pyrazolo[4,3-c]pyridin-1-yl)pyrrolidin-1-yl)prop-2-en-1-one], the IC50 against FGFR1 is 2.4 nM; at FGFR2, 1 nM; against FGFR3, 1.1 nM; at FGFR2 V564F, 0.5 nM; in the data set with NCI-H716 cells, 0.95 nM; in data set [1], 2 nM.
